Assay results taken from US7951359B2, “Compositions and methods for therapy or prevention of chemotherapy-induced neuropathy” (Merck Serono SA, priority 2004, dated 2011).

Experiments:
taxol induced neuropathy = assay: Electrophysiological monitoring in taxol induced neuropathy, co-administration; assay type: in vivo, rat
Method: The aim of the following experiment was to investigate the potential neuroprotective effect of IL6 in an additional model of chemotherapeutic induced neuropathy mediated by taxol. The potential preventive effect of IL-6 co-administration was tested. Administration of IL-6 was initiated together with taxol administration. The doses of IL-6 of 3 and 10 μg/kg were administered daily or in the case 10 μg/kg also only 3 times per week.
Females 10 weeks old aged Dark Agouti rats were used, 12 animals per group were included as following
The taxol was diluted in a solution of cremophor/ethanol/dextrose 5% and administered twice a week during 4 weeks.
4-MC and test compounds treatment was initiated the first day of intoxication and was stopped at the end of the study.
The study was performed on 8 weeks (1 week for the baseline, 4 weeks for the taxol intoxication and 3 weeks of recovery).
Control, taxol, and taxol-IL-6 co-administered group of rats at the indicated doses were subjected to electrophysiological monitoring to assess the effect of IL-6 in taxol-induced loss of fiber/nerve function.
(§1) Sensitive nerve conduction velocity (SNCV) was also recorded. The tail skin electrodes were placed as follows: a reference needle inserted at the base of the tail and an anode needle placed 30 mm away from the reference needle toward the extremity of the tail. A ground needle electrode was inserted between the anode and reference needles. The caudal nerve was stimulated with a series of 20 pulses (for 0.2 ms) at an intensity of 12.8 mA. The velocity was expressed in m/s.
H-wave reflex was recorded in the hind footpad muscle after stimulation of the sciatic nerve. […] The sciatic nerve was stimulated with a single 0.2 ms pulse at supramaximal intensity. The amplitude (mV) of H wave and the proportion of animal lacking H wave response were the parameters studied.

[1] = monkeys; cited from earlier work
[2] = system: cisplatin induced neuropathy; assay: Morphometric analysis of sciatic nerve in cisplatin-treated rats, co-administration; assay type: in vivo, rat
Method: The total number of fibers per nerve section was obtained from 3 randomized slices of each sample. The counting was performed on 2 selected fields per slice.

[3] = system: cisplatin induced neuropathy; assay: Morphometric analysis, therapeutic treatment of established cisplatin neuropathy; assay type: in vivo, rat; settings: for proportion of degenerated fibers versus control: p≦0.05
Source text: The number of degenerated and non-degenerated fibers on the entire surface of each nerve section was counted by an operator in a blinded fashion. All the results (except the data expressed as ratio value) were reported as percentage of changes in reference to the control value.

[4] = system: cisplatin induced neuropathy; assay: Hot plate test in cisplatin-treated rats, co-administration; assay type: in vivo, rat
Method: The rat was placed inside a glass cylinder of 17 cm height and 21 cm diameter on a heating-plate maintained at 52° C. (Medite OTS 40, Microm, Francheville, Rhône, France). The animal behavior was observed, particularly the licking of a foot and the adjusted leap. The latency before licking a foot or before jumping to escape the heat (adjusted leap) was recorded. The time needed to feel the thermal pain is related to the thermal sensitivity and tends to increase when thermal sensitivity is altered.

[5] = system: cisplatin induced neuropathy; assay type: in vivo, rat
Method: The drug was diluted in 0.9% sterile aqueous solution of sodium chloride.
4-MC was diluted in 0.9% sterile aqueous solution of sodium chloride and injected daily via IP route from day 23 to the end of the experiment.
Electrophysiological tests described in Example 17, were carried out in parallel to the behavioral tests (described in the preceding example) in cisplatin-established neuropathy model. The objective was to assess the therapeutic effect of IL-6 in cisplatin-induced loss of fiber/nerve function.
Electrophysiological recordings were performed using a Neuromatic 2000M electromyograph (EMG) (Dantec, Les Ulis, France). Rats were anaesthetized by IP injection of 60 mg/kg ketamine chlorhydrate (Imalgene 500®, Rhône Merieux, Lyon, France). The normal body temperature was maintained around […] with a heating lamp and verified using a contact thermometer (Quick, Bioblock Scientific, Illkirch, France) placed on the tail surface.
as §1
H-wave reflex was recorded in the hind footpad muscle after stimulation of the sciatic nerve. A reference electrode and a ground needle were placed on the lower back of the rat. The sciatic nerve was stimulated with a single 0.2 ms pulse at supramaximal intensity. The amplitude (mV) of H wave and the proportion of animal lacking H wave response were the parameters studied.

[6] = patients with myelodysplastic syndromes and trombocytopenia; cited from earlier work
[7] = system: vincristine induced neuropathy; assay: Morphometric analysis of sciatic nerve in vincristine-treated rats; assay type: in vivo, rat
Method: Histomorphometric analyses were carried out as described in Example 18 at the completion of the experiments, to explore morphologic changes occurring in fiber and axon diameter and myelin thickness in rats treated with vincristine and in rats co-administrated with IL-6.
With vincristine, morphometric analysis was performed 2 week after the end of vincristine administration on 3 animals per group. The animals were anesthetized by IP injection of 100 mg/kg Imalgène 500®. A 5 mm segment of sciatic nerve was excised, fixed overnight with 4% glutaraldehyde (Sigma, L'Isle d'Abeau-Chesnes, France) in phosphate buffered saline (PBS) (pH=7.4) and maintained in 30% sucrose and stored at 4° C. until further processing. At the time of use, the nerve sample was post-fixed in 1% osmium tetroxide (Sigma, L'Isle d'Abeau-Chesnes, France) in PBS for 2 h, dehydrated in serial alcohol solution, and embedded in Epon. Embedded tissues were then placed at 70° C. during 3 days to allow polymerization of the tissue wax. Cross sections of 1.5 μm thick were performed and they were stained with a 1% toluidine blue solution (Sigma, L'Isle d'Abeau-Chesnes, France) for 2 min, dehydrated and mounted on Eukitt. Twelve sections per sample were examined using an optical microscope (Nikon, Tokyo, Japan) and analyzed using, a semi-automated digital image analysis software (Biocom, France). The fiber diameter (a), axon diameter (b), and myelin thickness (c) were measured as illustrated below.

[8] = system: cisplatin induced neuropathy; assay: Hot plate test, therapeutic treatment of established cisplatin neuropathy; assay type: in vivo, rat
[9] = cisplatin alone, 3 weeks after cessation of cisplatin

## IL-6: Recombinant human IL-6 produced in genetically engineered Chinese Hamster Ovary (CHO) cells
Taxol induced neuropathy; IL-6 3 or 10 μg/kg daily or 10 μg/kg 3 times per week, sc
  H wave latency under taxol: prevent/reduce H wave latency
Taxol induced neuropathy; IL-6 3 or 10 μg/kg daily or 3 times per week
  alterations in SNCV by taxol: prevent alterations in SNCV
Taxol induced neuropathy; IL-6 at all the dosages tested, throughout the experiment
  reduction in H wave amplitude by taxol: significantly prevented the reduction in H wave amplitude
Taxol induced neuropathy; IL-6 vs 4-MC
  preventive effects compared with 4-MC co-administration: more significant than those of 4-MC co-administration
[1]
  active dose as thrombopoietic factor: 0.01 mg/kg
[2]; IL-6 1, 3, 10 μg/kg
  loss of myelin wall by cisplatin: significantly protected fibers against the loss of myelin wall
  percentage of degenerated fibers by cisplatin: reduce the percentage of degenerated fibers
[2]; IL-6, statistically significant at 1-10 μg/kg
  cisplatin-induced axon diameter decrease: prevents/reduces cisplatin-induced axon diameter decrease
[2]; IL-6 all doses tested, statistically significant at 1-10 μg/kg
  fiber diameter decrease by cisplatin: prevents/reduce the diameter decrease
[2]; IL-6 co-administration
  myelinated fibers in cisplatin treated rats: increased myelinated fibers
[3]; IL-6 10 μg/kg
  cisplatin-induced myelin sheath thinning: appeared to reverse cisplatin-induced myelin sheath thinning
  percentage of degenerated fibers, significance: significant effect
[3]; IL-6 treatment
  large/small fibers ratio: slight increase
[3]; IL-6 treatment (3 and 10 μg/kg)
  percentage of degenerated fibers: significantly reduced the percentage of degenerated fibers
[3]; IL-6 vs 4-MC
  restoring myelin and fiber degeneration compared with 4-MC: more efficient than 4-MC
[4]; IL-6 10 μg/kg SC daily
  delay of the first reaction to heat by cisplatin: fully prevented
[4]; IL-6 0.3, 1, 3, 10 μg/kg SC daily, p≦0.05
  delay of the first reaction to heat by cisplatin: prevented/reduced delay of the first reaction to heat
[5]; IL-6 3 μg/kg, after 1 week of treatment, p≦0.01
  SNCV in cisplatin-treated animals: improved the SNCV
[5]; IL-6 3 and 10 μg/kg SC daily from day 23, p≦0.05
  loss of H wave amplitude: reversed the loss of H wave amplitude
[5]; IL-6, 1 week after initiation of treatment
  H wave amplitude loss recovered: about 50%
[5]; IL-6, 2 weeks of treatment
  H wave amplitude recovery: full recovery
[5]; IL-6 vs 4-MC
  curing/ameliorating loss of fiber/nerve function compared with 4-MC: more efficient than 4-MC
[6]
  maximum dose tolerated: 3.75 µg/kg/day
[7]; IL-6 0.3-10 μg/kg SC daily
  decrease in axon diameter by vincristine: significantly reduced/prevented the decrease in axon diameter
  percentage of degenerated fibers in vincristine treated rats: decreased the percentage of degenerated fibers
[7]; IL-6 1-10 μg/kg SC daily
  vincristine-induced fiber shrinkage: prevented vincristine-induced fiber shrinkage
  vincristine-induced myelin loss: reduced/prevented vincristine-induced myelin loss
[8]; IL-6 10 μg/kg, 2 weeks after IL-6 treatment, p≦0.05
  time of the first reaction to heat, significance: Significant results
[8]; IL-6 3 and 10 μg/kg SC daily from day 23, two weeks after initiation, p≦0.05
  time of the first reaction to heat: overall reduction in the time of the first reaction

## N.N.[Cl][Pt][Cl] [cisplatin, Cis-dichlorodiamine platinum]
[2]; cisplatin alone
  fiber diameter: significantly decreases fibers diameter
  percent of myelinated fibers versus control: significant reduction in the percent of myelinated fibers
  percentage of degenerated fibers versus control: two-folds higher
[3]; [9]
  proportion of non-degenerated myelinated fibers versus control: lower
  proportion of degenerated fibers versus control: significantly higher
[3]; cisplatin alone, day 23
  proportion of non-degenerated myelinated fibers versus control: lower
  proportion of degenerated fibers versus control: significant greater proportion of degenerated fibers
[3]; cisplatin alone, day 44, p>0.05
  myelin area: slight but not significant reduction
[3]; cisplatin alone, up to day 23, not significant (p>0.05)
  overall size of myelin versus control: slightly reduced
[4]; cisplatin alone, from 3 weeks
  hot plate first reaction to heat versus control: significant delayed first reaction to heat
[5]; rat, in vivo
  SNCV versus untreated control: significantly slower
  loss in H wave signal amplitude: about 70%
[8]; cisplatin alone, during and 3 weeks post-cisplatin
  hot plate first reaction to heat versus control: significant delayed first reaction to heat
